Experimental data published in patent US8846730B2, “Compounds as cannabinoid receptor ligands” (priority 2008, dated 2014).
Where two headings read alike, the source gives them in different places.

Tests used:
[1] = target: human CB2 receptors (Homo sapiens (Human), UniProt P34972); experiment: human CB2 radioligand binding assay ([3H]CP 55,940 competition)
Procedure: (§1) The CB1 and CB2 radioligand binding assays described herein are utilized to ascertain the affinity of compounds of the present application for binding to CB2 relative to CB1 receptors.
HEK293 cells stably expressing human CB2 receptors were grown until a confluent monolayer was formed. Briefly, the cells were harvested and homogenized in TE buffer (50 mM Tris-HCl, 1 mM MgCl2, and 1 mM EDTA) using a polytron for 2×10 second bursts in the presence of protease inhibitors, followed by centrifugation at 45,000×g for 20 minutes. The final membrane pellet was re-homogenized in storage buffer (50 mM Tris-HCl, 1 mM MgCl2, and 1 mM EDTA and 10% sucrose) and frozen at −78° C. until used. Saturation binding reactions were initiated by the addition of membrane preparation (protein concentration of 5 μg/well for human CB2) into wells of a deep well plate containing [^3H]CP 55,940 (120 Ci/mmol, a nonselective CB agonist commercially available from Tocris) in assay buffer (50 mM Tris, 2.5 mM EDTA, 5 mM MgCl2, and 0.5 mg/mL fatty acid free BSA, pH 7.4). After 90 min incubation at 30° C., binding reaction was terminated by the addition of 300 μL/well of cold assay buffer followed by rapid vacuum filtration through a UniFilter-96 GF/C filter plates (pre-soaked in 1 mg/mL BSA for 2 hours). The bound activity was counted in a TopCount using Microscint-20. Saturation experiments were conducted with twelve concentrations of [^3H]CP 55,940 ranging from 0.01 to 8 nM. Competition experiments were conducted with 0.5 nM [^3H]CP 55,940 and five concentrations (0.01 nM to 10 μM) of displacing ligands. The addition of 10 μM unlabeled CP 55,940 (Tocris, Ellisville, Mo.) was used to assess nonspecific binding.

[2] = target: rat CB2 receptors (Rattus norvegicus (Rat), UniProt Q9QZN9); experiment: rat CB2 radioligand binding assay ([3H]CP 55,940 competition); conditions: HEK293 membranes, 0.5 nM [3H]CP 55,940
Procedure: as §1
HEK293 cells stably expressing rat CB2 receptors were grown until a confluent monolayer was formed. Briefly, the cells were harvested and homogenized in TE buffer (50 mM Tris-HCl, 1 mM MgCl2, and 1 mM EDTA) using a polytron for 2×10 second bursts in the presence of protease inhibitors, followed by centrifugation at 45,000×g for 20 minutes. The final membrane pellet was re-homogenized in storage buffer (50 mM Tris-HCl, 1 mM MgCl2, and 1 mM EDTA and 10% sucrose) and frozen at −78° C. until used. Saturation binding reactions were initiated by the addition of membrane preparation (protein concentration of 20 μg/well for rat CB2) into wells of a deep well plate containing [^3H]CP 55,940 (120 Ci/mmol, a nonselective CB agonist commercially available from Tocris) in assay buffer (50 mM Tris, 2.5 mM EDTA, 5 mM MgCl2, and 0.5 mg/mL fatty acid free BSA, pH 7.4). After 45 min incubation at 30° C., binding reaction was terminated by the addition of 300 μl/well of cold assay buffer followed by rapid vacuum filtration through a UniFilter-96 GF/C filter plates (pre-soaked in 1 mg/mL BSA for 2 hours). The bound activity was counted in a TopCount using Microscint-20. Saturation experiments were conducted with twelve concentrations of [^3H]CP 55,940 ranging from 0.01 to 8 nM. Competition experiments were conducted with 0.5 nM [^3H]CP 55,940 and five concentrations of displacing ligands selected from the range of 0.01 nM to 10 μM. The addition of 10 μM unlabeled CP 55,940 (Tocris, Ellisville, Mo.) was used to assess nonspecific binding.

[3] = HEK293 membranes, 0.5 nM [3H]CP 55,940, read-out: human CB2 (Ki)

human CB2 receptors, sequence (P34972 whole entry): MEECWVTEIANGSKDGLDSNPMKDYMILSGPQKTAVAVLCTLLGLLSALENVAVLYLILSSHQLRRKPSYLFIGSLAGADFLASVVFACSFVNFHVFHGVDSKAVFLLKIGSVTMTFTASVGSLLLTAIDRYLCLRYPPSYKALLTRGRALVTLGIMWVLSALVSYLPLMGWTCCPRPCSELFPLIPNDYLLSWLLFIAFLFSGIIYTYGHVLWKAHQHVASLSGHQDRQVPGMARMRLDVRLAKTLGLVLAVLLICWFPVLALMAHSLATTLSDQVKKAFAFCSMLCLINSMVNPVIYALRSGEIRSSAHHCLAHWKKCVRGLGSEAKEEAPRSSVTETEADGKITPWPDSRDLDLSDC

SMILES	Ki [1, 3]	Ki [2]	Ki [1]
CC(=O)N1CCC[C@H]1COc1ccc(C(F)(F)F)cc1C(=O)/N=c1\sc(C(C)(C)C)cn1C[C@H]1CCCO1 [Example 47, 2-{[(2S)-1-acetylpyrrolidin-2-yl]methoxy}-N-[(2Z)-5-tert-but 1-3[(2R)-tetrahydrofuran-2-ylmethyl]-1,3-thiazol-2(3H)-ylidene]-5-(trifluoromethyl)benzamide]	107 nM	24 nM	
CC(CN1CCC[C@H]1COc1ccc(C(F)(F)F)cc1C(=O)/N=c1\sc(C(C)(C)C)cn1C[C@H]1CCCO1)=NO [Example 77, N-[(2Z)-5-tert-butyl-3-[(2R)-tetrahydrofuran-2-ylmethyl]-1,3-thiazol-2(3H)-ylidene]-2-({(2S)-1-[2-(hydroxyimino)propyl]pyrrolidin-2-yl}methoxy)-5-(trifluoromethyl)benzamide]	85 nM	64 nM	
CC(C)(C)c1cn(C[C@H]2CCCO2)/c(=N/C(=O)c2cc(C(F)(F)F)ccc2OCC(C)(C)n2cccc2)s1 [Example 74, N-[(2Z)-5-tert-butyl-3-[(2R)-tetrahydrofuran-2-ylmethyl]-1,3-thiazol-2(3H)-ylidene]-2-[2-methyl-2-(1H-pyrrol-1-yl)propoxy]-5-(trifluoromethyl)benzamide]	34 nM	6.6 nM	
COCCn1cc(C(C)(C)C)s/c1=N\C(=O)c1cc(C(F)(F)F)ccc1ONC(C)(C)C [Example 76, 2-[(tert-butylamino)oxy]-N-[(2Z)-5-tert-butyl-3-(2-methoxyethyl)-1,3-thiazol-2(3H)-ylidene]-5-(trifluoromethyl)benzamide]		5.2 nM	20 nM
C[C@@H](O)COc1ccc(C(F)(F)F)cc1C(=O)/N=c1\sc(C(C)(C)C)cn1C[C@H]1CCCO1 [Example 81, N-[(2Z)-5-tert-butyl-3-[(2R)-tetrahydrofuran-2-ylmethyl]-1,3-thiazol-2(3H)-ylidene]-2-{[(2R)-2-hydroxypropyl]oxy}-5-(trifluoromethyl)benzamide]	1.1 nM	0.5 nM	
CC(C)(C)c1cn(C[C@H]2CCCO2)/c(=N/C(=O)c2cc(C(F)(F)F)ccc2ON=C2CCCC2)s1 [Example 83, N-[(2Z)-5-tert-butyl-3-(2R)-(tetrahydrofuran-2-ylmethyl)-1,3-thiazol-2(3H)-ylidene]-2-[(cyclopentylideneamino)oxy]-5-(trifluoromethyl)benzamide]		1.2 nM	0.5 nM
CN1CCC[C@H]1CNc1ccc(C(F)(F)F)cc1C(=O)/N=c1\sc(C(C)(C)C)cn1C[C@H]1CCCO1 [Example 55, N-[(2Z)-5-tert-butyl-3-[(2R)-tetrahydrofuran-2-ylmethyl]-1,3-thiazol-2(3H)-ylidene]-2-({[(2S)-1-methylpyrrolidin-2-yl]methyl}amino)-5-(trifluoromethyl)benzamide]	36 nM	8.1 nM	
CCN(CC)Oc1ccc(C(F)(F)F)cc1C(=O)/N=c1\sc(C(C)(C)C)cn1C[C@H]1CCCO1 [Example 78, N-[(2Z)-5-tert-butyl-3-[(2R)-tetrahydrofuran-2-ylmethyl]-1,3-thiazol-2(3H)-ylidene]-2-[(diethylamino)oxy]-5-(trifluoromethyl)benzamide]	22 nM	4.6 nM	
CC(COc1ccc(C(F)(F)F)cc1C(=O)/N=c1\sc(C(C)(C)C)cn1C[C@H]1CCCO1)=NOC(C)(C)C [Example 82]	4.9 nM	1.7 nM	
CC(C)NOc1ccc(C(F)(F)F)cc1C(=O)/N=c1\sc(C(C)(C)C)cn1C[C@H]1CCCO1 [Example 79, N-[(2Z)-5-tert-butyl-3-[(2R)-tetrahydrofuran-2-ylmethyl]-1,3-thiazol-2(3H)-ylidene]-2-[(isopropylamino)oxy]-5-(trifluoromethyl)benzamide]	0.3 nM	0.5 nM	
CC(=O)C(C)=NOc1ccc(C(F)(F)F)cc1C(=O)/N=c1\sc(C(C)(C)C)cn1C[C@H]1CCCO1 [Example 84, N-[(2Z)-5-tert-butyl-3-[(2R)-tetrahydrofuran-2-ylmethyl]-1,3-thiazol-2(3H)-ylidene]-2-({[1-methyl-2-oxopropylidene]amino}oxy)-5-(trifluoromethyl)benzamide]	3.3 nM	2.4 nM	
